The source of these data is US11774460B2, “Diagnostic or predictor of relapsing remitting multiple sclerosis” (Dignity Health, priority 2016, dated 2023).

This experiment has as its system Factor VIII activity. Description: Factor VIII activity in blood of multiple sclerosis patients under treatment. It is filed as in vivo, human. The conditions noted are these: MS patient with elevated Factor VIII activity during exacerbation. An excerpt:
In various embodiments, disclosed herein is a method of detecting or predicting a relapse of multiple sclerosis in an individual afflicted with a form of multiple sclerosis, comprising: (a) providing a blood sample of the individual; (b) testing the blood sample to determine a protein activity or protein level, wherein the protein is Factor VIII, von Willebrand factor, or Protein C; and (c) detecting a relapse of multiple sclerosis in the individual if the protein activity or protein level is elevated compared to the protein activity or protein level in an individual not afflicted with the form of multiple sclerosis or the patient's own lowest baseline value as a form of a control. In some of these embodiments, the form of multiple sclerosis is relapsing-remitting multiple sclerosis with or without secondary progression. In some embodiments, the multiple sclerosis in the individual is in remission. In some embodiments, the blood sample test to determine the protein activity or protein level is performed simultaneously with other blood tests, such as, partial thromboplastin time (PTT) test, International Normalized Ratio (INR) test, and erythrocyte sedimentation rate (ESR) test. In some of these embodiments, the blood sample tests are performed at least once per month during the treatment period and/or monitoring period of multiple sclerosis. […]

On to “TYSABRI: disease-modifying therapy for multiple sclerosis named only by trade name”, for which the “Factor VIII activity after treatment” value is on record as “returned to normal”.
